Results published in BigSolDB 2.1.

O=C(O)CNC(=O)OCc1ccccc1
solubility (mole fraction)
Settings	283.15 K	288.15 K	293.15 K	298.15 K	303.15 K	308.15 K	313.15 K	318.15 K	323.15 K
in 2-butanone	0.0371	0.0437	0.0508	0.0592	0.0692	0.082	0.0966	0.114	0.134
in acetone	0.0617	0.0709	0.0815	0.0942	0.108	0.123	0.14	0.169	0.197
in acetonitrile	0.0106	0.0132	0.0159	0.0198	0.0251	0.032	0.0408	0.052	0.067
in ethanol	0.0415	0.0499	0.0611	0.0767	0.0955	0.11	0.131	0.157	0.186
in ethyl acetate	0.0185	0.0222	0.026	0.0308	0.0369	0.0442	0.053	0.0642	0.0783
in isobutanol	0.0149	0.0188	0.0237	0.0315	0.0394	0.0523	0.0665	0.0853	0.109
in isopropanol	0.0261	0.0338	0.0449	0.0566	0.0707	0.0864	0.108	0.133	0.16
in methanol	0.0654	0.0769	0.0933	0.109	0.123	0.143	0.164	0.19	0.219
in methyl acetate	0.0261	0.0309	0.0366	0.0436	0.053	0.0627	0.0737	0.0902	0.105
in n-butanol	0.0205	0.0257	0.032	0.04	0.0504	0.0627	0.0786	0.0982	0.122
in n-pentanol	0.018	0.0221	0.0275	0.0349	0.0429	0.0578	0.0727	0.0886	0.111
in n-propanol	0.0261	0.0327	0.0399	0.0504	0.0636	0.0794	0.0986	0.122	0.149
